From US20070292489A1, “METHOD FOR TREATMENT OF WOUND TREATMENT USING AGANOCIDES” (priority 2006, published 2007)

System: human secondary intention wound
Assay: Vacuum-assisted wound treatment combined with intermittent aganocide instillation
Assay type: in vivo
Details: pH about 4, 0.9% NaCl, 2-hour pumping at 125 mm Hg
Experimental: A human secondary intention wound approximately 3-4 cm in diameter is fitted with a polyurethane sponge, pore size 400-600 microns cut to the size of the wound and twice the thickness of the wound and covered with an adhesive film, per instructions on the vacuum system. The outlet is connected to an IV bag (500 ml) with a 0.1% sodium 2-dichloroamino-2-methylpropanesulfonate solution adjusted with HCl to a pH of about 4, 0.9% NaCl and elevated to between 0.1 and 1 meter above the wound. A 1-cm hole is punctured in the adhesive film, and a second adhesive film is used to cover the hole, with the second outlet connected to the vacuum pump.
Each cycle consists of three phases: a 2-hour pumping phase when the vacuum (125 mm Hg negative pressure) is connected and the IV bag is disconnected; a 1 second instilling phase when the vacuum is disconnected and the IV bag is connected and the aganoocide is applied to the wound; and a 1 minute holding phase when both vacuum and the IV bag are disconnected.
Each treatment has about 24 cycles and starts with a pumping phase and proceeds for 48 hours. When the treatment is completed, the dressings are changed and the treatment is repeated until full granulation has been promoted and the granulation tissue is within the level of the skin, approximately 30 to 100 days, depending on the depth of the original wound. […]

## CC(C)(CS(=O)(=O)[O-])N(Cl)Cl.[Na+] [Sodium 2-dichloroamino-2-methylpropanesulfonate]
Example 1: 0.1% solution, 1 second instilling, 1 minute holding, about 24 cycles per 48 hours
  wound healing results of the combination treatment regimen compared with vacuum-assisted wound healing without aganocide or aganocide alone: superior wound healing results
Example 2: 0.1% solution, 5 second instilling, 30 minute holding, about 19 cycles per 48 hours
  wound healing results of the combination treatment regimen compared with vacuum-assisted wound healing without aganocide or aganocide alone: superior wound healing results
